One series concerns HCT116 cells. The series is classed as cell-based. The following applies: human. From the text:
These findings indicate that high molecular weight ubiquitin substrate complexes accumulating as a result of DUB inhibition can generate strong cytotoxicity that is insensitive to Bcl-2 over-expression. [table]

Series [1] relates to isogenic clones of HCT116 colon cancer cells. The experiment in a line: Apoptosis in isogenic HCT116 clones, caspase cleaved cytokeratin-18 ELISA. The series is classed as cell-based. The procedure: The increase in sub G1 DNA content is associated with (i) activation of the apoptosis mediator caspase-3 and (ii) with cleavage of the caspase substrates poly-ADP ribose polymerase (PARP) and cytokeratin-18. […] Apoptosis induction by bortezomib is dependent on p53 and inhibited by overexpression of the Bcl-2 protein (16,17).
For determination of apoptosis parental HCT-116 p53+/+ cells were treated with the increasing doses of bortezomib or b-AP15 for 24 h. […] HCT-116 cells were seeded in 96-well microtiter plates at 10,000 cells per well and incubated overnight. Cells were treated with indicated drug for 24 h. At the end of the incubation period, NP40 was added to the tissue culture medium to 0.1% and 25 μl of the content of each well was assayed using the M30-Apoptosense® ELISA as previously described (43). Cell viability was determined by measuring acid phosphatase activity or using the FMCA method (44). For the acid phosphatase activity cells were seeded at 5000 cells per well in 96-well culture plates and incubated for 12 h at 37° C. Compounds were added to the cells in growth media and incubated for 72 h at 37° C. Cells were washed with 200 μl warm PBS. […] Absorbance was measured at 405 nm.
b-AP15 inhibits degradation of ubiquitin-tagged YFP in a proteasome reporter cell line (FIG. 1a). Levels of ^UbG76V-YFP accumulation were determined by flow cytometry and immunoblotting; immunoblot of ubiquitin conjugation in HCT-116 cells treated with b-AP15 (1 μM) or bortezomib (100 nM) (FIG. 1b). […] Immunoblot of ODC-1 levels in HCT-116 cells following treatment with bortezomib ([…] or b-Ap15 (1 μM) (FIG. 1d); values represent quantified optical density units of ODC-1 normalized to β-actin. Cell cycle profiles of b-AP15 treated HCT-116 cells (FIG. 1e); cells were analyzed by propidium iodide staining and flow cytometry. Levels of caspase activity in isogenic HCT-116 cells as determined by ELISA for caspase cleaved cytokeratin-18 (CK18-Asp398) following treatment with bortezomib (100 nM) or b-AP15 (1 μM) (**′P=0.01, ***′P=0.001) (FIG. 1f). […]
Background: In an ELISA, binding on a coated surface is turned into a signal by an enzyme label.

For the compound `CC(C)C[C@H](NC(=O)[C@H](Cc1ccccc1)NC(=O)c1cnccn1)B(O)O` [bortezomib], in the series on HCT116 cells, the “Fold induction DNAJB1 (Hsp40B1) mRNA” value was found to be 5 fold, the “Fold induction HSPA1B mRNA” value is 12 fold and the “Fold induction HSPA6 (Hsp70B′) mRNA” value was found to be 60 fold. Also, in series [1], the “apoptosis: effect of genetic disruption of BAX or PUMA” value is listed as “bortezomib-induced apoptosis is inhibited”.
